Series [1] concerns cancer cells. Description: MTS assay: inhibition of cell growth (formazan absorbance at 492 nm after 72 hours with test compound). To be noted: inhibition class. The series is classed as cell-based. In a few lines:
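DMEM with 1% FBS; cells seeded at 3000/well and grown 18 h at 37 °C, then exposed to compound for 72 h and to MTS/PMS for 4 h. IC50 is the concentration giving a 50% absorbance drop; grades are % inhibition bands.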

The mark [2] stands for this setting: Homo sapiens, DLD-1 cells, read-out: DLD-1, MTS 72 hours at 10 uM.
Where [3] appears, read: Homo sapiens, KATO III cells, read-out: KATO III, MTS 72 hours at 10 uM.
Where [4] appears, read: Homo sapiens, MDA-MB-231 cells, read-out: MDA-MB-231, MTS 72 hours at 10 uM.
Where [5] appears, read: Homo sapiens, NCI-H1299 cells, read-out: NCI-H1299, MTS 72 hours at 10 uM.
The mark [6] stands for this setting: Homo sapiens, PC-3 cells, read-out: PC-3, MTS 72 hours at 10 uM.
[7] abbreviates: PACA-2 cells, read-out: PACA-2, MTS 72 hours at 10 uM.

Where two headings read alike, the source gives them in different places. Bounds are passed on as bounds.

The record followed here is patent US8343983B2, “Substituted pyrazolo-pyrimidine compounds” (ArQule, Inc., priority 2009, dated 2013).

Usually melting point stands for the temperature, or range, at which the solid turns liquid. Molecule `COc1ccc(CN2CCc3nn(Cc4ccccc4)c4nc(N5CCOCC5)nc2c34)cc1` [Compound 131, 4-(1-benzyl-5-(4-methoxybenzyl)-1,3,4,5-tetrahydro-1,2,5,6,8-pentaazaacenaphthylen-7-yl)morpholine] had a melting point of 118 to 120 °C.

For the molecule `COc1ccc(CN2CCCc3n[nH]c4nc(N5CCOCC5)nc2c34)cc1` [Compound 242, 6-(4-methoxybenzyl)-4-morpholin-4-yl-6,7,8,9-tetrahydro-2H-1,2,3,5,6-pentaazabenzo[cd]azulene], the inhibition at 10 µM is over 79% in series [1] (setting [2]); under 50% in series [1] (setting [3]); under 50% in series [1] (setting [4]); under 50% in series [1] (setting [5]); under 50% in series [1] (setting [6]); 50 to 79% in series [1] (setting [7]).

As to `COc1ccc(CN2CCCc3n[nH]c4nc(N5CCCC5)nc2c34)cc1` [Compound 244, 6-(4-methoxybenzyl)-4-pyrrolidin-1-yl-6,7,8,9-tetrahydro-2H-1,2,3,5,6-pentaazabenzo[cd]azulene], the inhibition at 10 µM in series [1] (setting [2]), in series [1] (setting [3]), in series [1] (setting [4]), in series [1] (setting [5]), in series [1] (setting [6]) and in series [1] (setting [7]) was under 50% each time.

Take `COc1ccc(CN2CCCc3n[nH]c4nc(N5CCCCC5)nc2c34)cc1` [Compound 245, 6-(4-methoxybenzyl)-4-piperidin-1-yl-6,7,8,9-tetrahydro-2H-1,2,3,5,6-pentaazabenzo[cd]azulene]: the inhibition at 10 µM in series [1] (setting [2]), in series [1] (setting [3]), in series [1] (setting [4]), in series [1] (setting [5]), in series [1] (setting [6]) and in series [1] (setting [7]) was under 50% throughout.

On to `COc1ccc(CN2CCCc3n[nH]c4nc(NC5CCN(C)CC5)nc2c34)cc1` [Compound 246, 6-(4-methoxybenzyl)-N-(1-methylpiperidin-4-yl)-6,7,8,9-tetrahydro-2H-1,2,3,5,6-pentaazabenzo[cd]azulen-4-amine], for which the inhibition at 10 µM in series [1] (setting [2]), in series [1] (setting [3]), in series [1] (setting [4]), in series [1] (setting [5]), in series [1] (setting [6]) and in series [1] (setting [7]) was under 50% each time.

In the case of `COc1ccc(CN2CCCc3n[nH]c4nc(NCc5ccccc5)nc2c34)cc1` [Compound 247, N-benzyl-6-(4-methoxybenzyl)-6,7,8,9-tetrahydro-2H-1,2,3,5,6-pentaazabenzo[cd]azulen-4-amine], the inhibition at 10 µM in series [1] (setting [2]), in series [1] (setting [3]), in series [1] (setting [4]), in series [1] (setting [5]), in series [1] (setting [6]) and in series [1] (setting [7]) was under 50% in each case.

As to `COc1ccc(CN2CCCc3n[nH]c4nc(NCCc5ccc(F)cc5)nc2c34)cc1` [Compound 248, N-[2-(4-fluorophenyl)ethyl]-6-(4-methoxybenzyl)-6,7,8,9-tetrahydro-2H-1,2,3,5,6-pentaazabenzo[cd]azulen-4-amine], the inhibition at 10 µM in series [1] (setting [2]), in series [1] (setting [3]), in series [1] (setting [4]), in series [1] (setting [5]), in series [1] (setting [6]) and in series [1] (setting [7]) was over 79% each time.

Turning to `COc1ccc(CN2CCCc3n[nH]c4nc(NCCN5CCOCC5)nc2c34)cc1` [Compound 249, 6-(4-methoxybenzyl)-N-(2-morpholin-4-ylethyl)-6,7,8,9-tetrahydro-2H-1,2,3,5,6-pentaazabenzo[cd]azulen-4-amine], the inhibition at 10 µM in series [1] (setting [2]), in series [1] (setting [3]), in series [1] (setting [4]), in series [1] (setting [5]), in series [1] (setting [6]) and in series [1] (setting [7]) was under 50% each time.

In the case of `COc1ccc(CN2CCCc3n[nH]c4nc(NCc5ccccc5Cl)nc2c34)cc1` [Compound 250, N-(2-chlorobenzyl)-6-(4-methoxybenzyl)-6,7,8,9-tetrahydro-2H-1,2,3,5,6-pentaazabenzo[cd]azulen-4-amine], the inhibition at 10 µM in series [1] (setting [2]) was 50 to 79%; in series [1] (setting [3]) it was over 79%; in series [1] (setting [4]) it was 50 to 79%; in series [1] (setting [5]), under 50%; in series [1] (setting [6]), over 79%; in series [1] (setting [7]), over 79%.

As to `COc1ccc(CN2CCCc3n[nH]c4nc(NCc5cccnc5)nc2c34)cc1` [Compound 251, 6-(4-methoxybenzyl)-N-(pyridin-3-ylmethyl)-6,7,8,9-tetrahydro-2H-1,2,3,5,6-pentaazabenzo[cd]azulen-4-amine], the inhibition at 10 µM in series [1] (setting [2]), in series [1] (setting [3]), in series [1] (setting [4]), in series [1] (setting [5]), in series [1] (setting [6]) and in series [1] (setting [7]) was over 79% in each case.

`COc1ccc(CN2CCCc3n[nH]c4nc(NCCc5c[nH]c6ccc(Cl)cc56)nc2c34)cc1` [Compound 252, N-[2-(5-chloro-1H-indol-3-yl)ethyl]-6-(4-methoxybenzyl)-6,7,8,9-tetrahydro-2H-1,2,3,5,6-pentaazabenzo[cd]azulen-4-amine]: the inhibition at 10 µM is 50 to 79% in series [1] (setting [2]); under 50% in series [1] (setting [3]); under 50% in series [1] (setting [4]); under 50% in series [1] (setting [5]); under 50% in series [1] (setting [6]); under 50% in series [1] (setting [7]).

On to `COc1ccc(CN2CCCc3n[nH]c4nc(NCc5ccc(Cl)cc5)nc2c34)cc1` [Compound 253, N-(4-chlorobenzyl)-6-(4-methoxybenzyl)-6,7,8,9-tetrahydro-2H-1,2,3,5,6-pentaazabenzo[cd]azulen-4-amine], for which the inhibition at 10 µM is under 50% in series [1] (setting [2]); under 50% in series [1] (setting [3]); under 50% in series [1] (setting [4]); 50 to 79% in series [1] (setting [5]); under 50% in series [1] (setting [6]); under 50% in series [1] (setting [7]).

Take `COc1ccc(CN2CCCc3n[nH]c4nc(N5CCN(Cc6ccccc6)CC5)nc2c34)cc1` [Compound 254, 4-(4-benzylpiperazin-1-yl)-6-(4-methoxybenzyl)-6,7,8,9-tetrahydro-2H-1,2,3,5,6-pentaazabenzo[cd]azulene]: the inhibition at 10 µM in series [1] (setting [2]), in series [1] (setting [3]), in series [1] (setting [4]), in series [1] (setting [5]), in series [1] (setting [6]) and in series [1] (setting [7]) was over 79% in each case.
